Assay results as given in patent publication US20050037956A1, “Screening method for agents useful in treating diabetes” (priority 2001, published 2005).

Legend:
[1] = tested on: PAI-1 expression; test: PAI-1 induction by insulin in adipocytes in presence of PI3K or MEK1 inhibitors; assay type: cell-based; details: adipocytes treated by insulin in presence of inhibitor
Protocol: (§1) Adipocyte differentiation was monitored by staining lipids with oil-red O. Briefly, cells were washed twice with phosphate buffered saline (PBS) and fixed with 3.7% formaldehyde solution for 1 h. After washing twice with PBS, cells were stained with oil-red O [60:40 (v/v) dilution in water of 0.5% stock solution (v/v, in isopropanol)] for 1 h. Cells were then washed twice with PBS and twice with water. Lipid-positive cells started to appear after the third day of induction and reached more than 90% by the eighth day. PPARγ (peroxisome proliferator-activated receptor gamma) mRNA, another marker of adipocyte differentiation, also started to appear at the third day and reached a plateau by the 5th day. For RNA analysis, total RNA (12 μg), prepared with acid guanidinium thiocyanate-phenol-chloroform method, was resolved by agarose gel electrophoresis under denaturing conditions and transferred to a nylon membrane as described (Northern blotting) (Ziegler, A., et al., 1991, J Biol Chem 266(31): 21067-74). Equal RNA loading and transfer to nylon membranes were confirmed by staining rRNA with methylene blue (Herrin, D. L. and G. W. Schmidt, 1988, Biotechniques 6(3): 196-7, 199-200). […] Levels of specific RNA were measured using a Molecular Dynamic PhosphorImager. […]

[2] = tested on: PAI-1 mRNA; test: PAI-1 mRNA induction by insulin at different stages of NIH3T3-L1 differentiation (Northern blot); assay type: cell-based
Protocol: NIH3T3-L1 preadipocytes (ATCC No. CL-173) were induced to differentiate into adipocytes by treating confluent cells with a mixture of insulin, dexamethasone and isobutylmethylxanthine followed by a successive change of different media (Student, A. K. et al., 1980, J Biol Chem. 255:4745-4750). In brief, NIH3T3-L1 preadipocytic cells (2×10^5 cells) were grown in 60-mm plastic dishes with 4 ml Dulbecco's modified Eagle's medium (DMEM) supplemented with 10% fetal bovine serum (FBS). Two days after cells reached confluency, the medium was changed to DMEM containing 10% FBS, 10 μg/ml insulin, 1 μM dexamethason, and 0.5 mM isobutylmethylxanthine. Two days later, this medium was replaced with DMEM supplemented only with 10 μg/ml insulin. Subsequently, two days later this medium was withdrawn and replaced with DMEM containing 10% FBS, and thereafter cells were replenished with the same medium every two days.
as §1, with “21067-74).” for “21067-74). Equal RNA loading and transfer to nylon membranes were confirmed by staining rRNA with methylene blue (Herrin, D. L. and G. W. Schmidt, 1988, Biotechniques 6(3): 196-7, 199-200).”

[3] = tested on: pRB-E2F interaction (E2F-pRB complex); test: Electromobility shift assay (EMSA) with E2pro oligonucleotide and nuclear extracts from day 8 NIH3T3-L1 cells, peptide added to binding reaction; details: in vitro, increasing peptide concentration added to binding reaction, day 8 NIH3T3-L1 nuclear extracts
Protocol: Changes in E2F DNA-binding patterns during adipogenesis were investigated. Nuclear extracts were prepared from NIH3T3-L1 cells at different times during induction of differentiation and their E2F DNA-binding activity was assessed by DNA gel shift assays using a radio active E2pro oligonucleotide corresponding to two tandem E2F binding sites in the adenovirus E2 promoter. Oligonucleotide probes were radiolabeled using E. coli polynucleotide kinase and {γ-32P}ATP. The oligonucleotides used for electromobility shift assays (EMSA) were as follows (only upper strands are given): E2pro (corresponding to the −72 to −32 region of the adenovirus E2 promoter; E2F binding site), 5′-[…]-3′ (SEQ ID NO:1); CycD1 (E2F binding site from the cyclin D1 promoter), 5′-[…]-3′ (SEQ ID NO:2); CycD1m, 5′-[…]-3′ (SEQ ID NO:3, mutated nucleotides in bold italic). […] The gel was dried and analyzed using a PhosphorImager. […]
The specific peptide was modified to improve cell penetration by linking to the amino terminal end of the interfering peptide a specific region of the HIV tat protein of 18 amino acids in length, which renders conjugated peptides cell-penetrable (Schwarze, S. R., et al., 1999, Science 285(5433): 1569-72). The effect of this elongated interfering peptide on E2F was first assessed in vitro as above. […]

Molecule: COc1cccc(-c2cc(=O)c3ccccc3o2)c1N [PD98059]
- PAI-1 induction by insulin [1]: suppressed

Molecule: insulin
- PAI-1 mRNA induction by insulin ([2]; NIH3T3-L1 cells before cells were confluent): induced to a very low extent
- PAI-1 mRNA induction by insulin ([2]; NIH3T3-L1 cells when confluent): not at all
- PAI-1 mRNA induction by insulin ([2]; terminally differentiated cells (day 4 and 8)): induced markedly

Molecule: specific interfering peptide: peptide whose sequence was derived from amino acids 402-419 of E2F1 corresponding to the pRB-binding region of E2F1 (LSPPHEALDYHFGLEEGE; UniProt Q01094 402-419, looked up, fragment)
- shift of DNA-protein complexes (E2F DNA-binding, EMSA) [3]: shift from DNA-protein complexes of higher molecular weight forms to complexes of lower molecular weight forms
